Columns and labels:
purified human Hsp90 = experiment: Hsp90 binding assay (fluorescence polarization, displacement of BODIPY-geldanamycin); settings: displacement of BODIPY-GM (10 nM) from purified human Hsp90 (30 nM), overnight at room temperature
Description: Plates are incubated overnight at room temperature. Parallel and perpendicular fluorescence measurements are read (LJL BioSystems Analyst AD plate reader) at excitation/emission wavelengths of 485/530 nm. Background fluorescence (buffer only) is subtracted, and fluorescence polarization (FP) values, expressed in mP units, are calculated from parallel and perpendicular fluorescence readings as follows:
Percent inhibition is calculated by normalizing the FP values to those obtained in parallel reactions containing DMSO and subtracting these normalized values from 100%. Intrinsic compound fluorescence is independently monitored, and FP data points confounded by compound fluorescence are excluded from the analysis.

HCT116 cells = experiment: Cytotoxicity assay (ATPLite, 72 hours); assay type: cell-based; settings: Homo sapiens, HCT-116, ATPLite luminescence
Description: HCT116 cells are seeded into black 96-well plates at 5,000 cells per well in 100 microliters (DMEM supplemented with 10% serum) and are incubated overnight. […] Plates are equilibrated to room temperature (5 min). Fifty microliters lysis buffer followed by 50 microliters substrate solution (ATPLite [2 step], Perkin-Elmer, #601941) is added to each well, and plates are incubated at room temperature 5 minutes. Luminescence is then measured (TopCount, Perkin-Elmer).

Compound	IC50 (purified human Hsp90) [nM]	IC50 (HCT116 cells) [nM]
[2H]C1([2H])Oc2cc(Br)c(Sc3nc4c(N)ncnc4n3CCC3CCN(C(=O)[C@H](C)O)CC3)cc2O1 [(2S)-1-[4-(2-{6-amino-8-[(6-bromo-2,2-d2-benzo[d][1,3]dioxol-5-yl)sulfanyl]-9H-purin-9-yl}ethyl)piperidin-1-yl]-2-hydroxypropan-1-one]	250	1200
[2H]C1([2H])Oc2cc(Br)c(Sc3nc4c(N)ncnc4n3CCC3CCN(C(=O)[C@H](C)OC(C)=O)CC3)cc2O1 [(2S)-1-[4-(2-{6-amino-8-[(6-bromo-2,2-d2-benzo[d][1,3]dioxol-5-yl)sulfanyl]-9H-purin-9-yl}ethyl)piperidin-1-yl]-1-oxopropan-2-yl acetate]	78	730
